Measured values reported in patent publication US11534428B1, “Compositions and methods for delaying the incidence of labor” (ObsEva S.A., priority 2018, dated 2022).
“Also recorded” adds a separate entry of the source. Read-outs that look alike come from different tables or passages of the source. Bridge positions count the residues as written; N and C are the ends. Square brackets hold non-standard residues; d marks the D form. Peptide text beside a SMILES is read from it. Orn = NCCC[C@H](N)C(=O)O; Mpa = O=C(O)CCS

Tests used:
[1] = Part A: three-period crossover, single doses of compound (2) and MgSO4 alone and co-administered; settings: for pharmacokinetic interaction between compound (2) and MgSO4: in vivo
Protocol: Both studies enrolled 12 healthy, non-pregnant women of reproductive age. […] During the MgSO4 study, women stayed in the clinic from Day −1 to Day 4 of each period. Safety and pharmacokinetics were assessed in accordance with European and United States clinical drug-interaction guidelines. Additional electrocardiogram and neurological examinations were performed assessing safety following MgSO4 administration.
One cohort of 12 subjects was admitted to the study unit on day −1, period 1. […] On day 1, subjects were crossed over and received the alternate treatment to that in period 1. Subjects were discharged on day 3, and after washout returned on day −1, period 3. […] Outpatient visits occurred on days 4 and 5 followed by a final visit 7 days (±1 day) later. Venous blood samples used in pharmacokinetic analyses were taken pre-dose then 0.25, 0.5, 0.75, 1, 1.5, 2, 3, 4, 6, 8, 12, 16 and 20 hours post dose on day 1 of each treatment period. Single samples for pharmacokinetic analysis were also drawn on days 2, 3, 4 and 5 of each treatment period.
(§1) Plasma samples used to determine drug concentration were analyzed by SGS (SGS CEPHAC, France) using a validated methods. Non-compartmental analysis was used to estimate pharmacokinetic parameters and pharmacokinetic modeling was used to access time-dependent pharmacokinetics. […] Other pharmacokinetic parameters were calculated according to standard equations.
Pharmacokinetic interaction assessments were performed on logarithmically transformed AUC0-24, AUC0-∞ and Cmax values using ANOVA models with fixed effects for sequence (Part A only), period, and treatment and a random term for subject within sequence.
(§2) Differences in tmax were explored by computing the Hodges-Lehmann estimate and the corresponding 90% CI according to Tukey using the approximate method. The Wilcoxon signed rank test was used to test differences in tmax. Unrecorded values were treated as missing.

[2] = Part B: single-sequence crossover, compound (2) at steady state co-administered with atosiban, nifedipine or betamethasone; settings: for Tmax: female, human, in vivo, iv, 60.75 mg, time of peak plasma concentration
Protocol: (§3) Both studies enrolled 12 healthy, non-pregnant women of reproductive age. […] Safety and pharmacokinetics were assessed in accordance with European and United States clinical drug-interaction guidelines.
(§4) Once at steady state, compound (2) was sequentially co-administered with each of the other tocolytic drugs. Subjects were admitted to the study unit on day −1. On day 1, each subject received a single intravenous treatment course of atosiban. […] From days 4 to 9, oral doses of compound (2) (1,000 mg) were administered until reaching steady state. […] Two additional samples were taken at 24 and 48 hours post dose to determine betamethasone concentration, due to the longer half-life of this drug. Pharmacokinetic sampling also occurred before compound (2) administration on days 4, 5, 6, 7, 8 and 9, with an additional 0.25 hour post-dose sample taken on day 9 to determine concentration of compound (2) and its metabolite, compound (1). […] Pharmacokinetic samples were obtained at the times stated above on days 10, 11 and 12, and additional betamethasone samples were obtained 24 and 48 hours post-dose. Subjects were discharged on day 14 and returned for a follow-up visit on day 21.
as §1
(§5) Pharmacokinetic interaction assessments were performed on logarithmically transformed AUC0-24, AUC0-∞ and Cmax values using ANOVA models with fixed effects for sequence (Part A only), period, and treatment and a random term for subject within sequence. The 90% confidence intervals (90% CI) for the geometric mean ratio of AUC0-24, AUC0-∞ and Cmax were constructed, comparing treatments administered alone versus combination treatments.
as §2

[3] = in vivo
Protocol: as §3, §4, §1, §5, §2

[4] = clinical; settings: female, human, in vivo
Protocol: as §3, §4, §1, §5, §2

[5] = clinical drug-interaction study in healthy women, Parts A and B together (pharmacokinetics, safety, tolerability); assay type: in vivo, human; settings: plasma, oral compound (2)
Protocol: Healthy women aged between 18 and 45 years with a body mass index of 18.0 to 30.0 kg/m^2 were included in these investigations. Subjects were screened 55 days before the first drug administration and had to be healthy according to medical history, physical examinations, blood pressure tests, electrocardiogram results and laboratory assessment of blood and urine.
This study was performed at Croydon University Hospital, Croydon, UK. The study protocol (EudraCT: 2016-001958-18) was reviewed and approved by a National Health Service (NHS) Research Ethics Committee (South Central-Berkshire B, UK) and the Medicines and Healthcare products Regulatory Authority (MHRA). The study was conducted according to the ethical principles enshrined in UK law, the Declaration of Helsinki and Good Clinical Practice guidelines. All subjects were informed of the purpose of the study and signed voluntary consent forms before being enrolled.
Other pharmacokinetic parameters were calculated according to standard equations.

[6] = target: T1, Pept1 transporter protein (Homo sapiens, UniProt P46059); assay: Pept1 transporter dependence of intestinal absorption; assay type: in vitro ADME
T1 sequence (P46059 1-708): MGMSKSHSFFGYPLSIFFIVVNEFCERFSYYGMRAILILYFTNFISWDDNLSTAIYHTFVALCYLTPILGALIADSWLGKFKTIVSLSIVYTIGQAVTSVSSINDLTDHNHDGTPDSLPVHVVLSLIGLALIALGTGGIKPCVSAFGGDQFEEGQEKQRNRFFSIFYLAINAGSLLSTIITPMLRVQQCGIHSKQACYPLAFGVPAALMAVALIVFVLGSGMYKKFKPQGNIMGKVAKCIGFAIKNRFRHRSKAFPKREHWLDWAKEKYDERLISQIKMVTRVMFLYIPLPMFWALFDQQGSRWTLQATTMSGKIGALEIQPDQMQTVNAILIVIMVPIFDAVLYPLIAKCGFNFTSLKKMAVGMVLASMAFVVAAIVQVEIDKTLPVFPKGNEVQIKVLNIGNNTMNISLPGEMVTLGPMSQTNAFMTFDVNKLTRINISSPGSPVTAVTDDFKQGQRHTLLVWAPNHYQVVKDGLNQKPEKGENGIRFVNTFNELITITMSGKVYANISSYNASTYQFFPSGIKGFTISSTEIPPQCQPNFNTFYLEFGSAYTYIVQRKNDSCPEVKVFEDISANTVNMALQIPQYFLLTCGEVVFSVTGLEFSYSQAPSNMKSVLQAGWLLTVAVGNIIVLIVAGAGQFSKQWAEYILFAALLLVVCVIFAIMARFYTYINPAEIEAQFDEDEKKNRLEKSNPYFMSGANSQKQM
Excerpt: Compound 2 is de-esterified by ambient esterases in the small intestine and subsequently penetrates the small intestinal epithelium passively. […] Pept1 is known to mediate the absorption of a variety of valinate esters, as described, for example, in Vig et al., Adv. Drug Deliv. Rev. […] Dispos. 41:608-614 (2013). […] Rather, compound 2 and salts thereof are converted in vivo to a form that is readily absorbed in a manner independent of energy and local proton gradient. This beneficial property, coupled with the high aqueous solubility of compound I and salts thereof, fosters a pharmacokinetic profile in which compound 2 and salts thereof readily dissolve in an aqueous environment and are in turn converted into a form capable of transported-independent absorption.

[7] = relative to compound 1; cited from earlier work
[8] = crystal form stability and hygroscopicity; assay type: physicochemical
Excerpt: For example, this compound is readily crystallized using a several distinct experimental procedures. Compound 3 assumes a single, reproducible crystal form upon crystallization from a variety of media and under different ambient conditions. […] For instance, impurities associated with atmospheric water are not readily integrated into the crystalline form of compound 3.

[9] = co-administration with MgSO4 vs compound (2) alone
[10] = compound (2) with MgSO4 vs alone

## O=S(=O)([O-])[O-].[Mg+2] [MgSO4, magnesium sulfate, reference compound]
[1]; after co-administration of compound (2) and MgSO4 vs MgSO4 alone
  AUCs of total Mg: slightly lower
[1]
  pharmacokinetic interaction between compound (2) and MgSO4: no relevant mutual pharmacokinetic interactions
[1]; interaction analysis
  effect of compound (2) on timing or extent of total Mg exposure: no effects

## CCOc1ccc(C[C@H]2NC(=O)CCSSC[C@@H](C(=O)N3CCC[C@H]3C(=O)N[C@@H](CCCN)C(=O)NCC(N)=O)NC(=O)[C@H](CC(N)=O)NC(=O)[C@H]([C@@H](C)O)NC(=O)[C@H]([C@@H](C)CC)NC2=O)cc1 [atosiban] ([Mpa][dY](Et)ITNCP[Orn]G-NH2; disulfide 1-6)
[2]; descriptive
  Cmax and AUCs, co-administration with compound (2) vs drug alone: slightly higher
[2]; co-administered with compound (2), compound (2) 1,000 mg per day at steady state
  Tmax: 15 min
[2]; drug administered alone
  Tmax: 90 min
[2]; paired analysis
  tmax, with compound (2) vs drug alone: no significant tmax difference

## C[C@H]1C[C@H]2[C@@H]3CCC4=CC(=O)C=C[C@]4(C)[C@@]3(F)[C@@H](O)C[C@]2(C)[C@@]1(O)C(=O)CO [betamethasone, reference compound]
[3]
  Cmax and AUCs, co-administration with compound (2) vs drug alone: Slightly increased
  rise of plasma concentrations: increased more rapidly
  tmax, with compound (2) vs drug alone: significantly shorter

## O=C(N[C@@H](CCO)c1ccc(F)cc1)[C@@H]1SCCN1S(=O)(=O)c1ccc(-c2ccccc2)cc1 [compound (1), 3-([1,1′-biphenyl]-4-ylsulfonyl)-N-[1-(4-fluorophenyl)-3-hydroxypropyl]-1,3-thiazolidine-2-carboxamide]
[3]; female, human
  change in compound (1) AUC0-24: 15-24%
  change in compound (1) AUC (AUC0-24): −21%
  increase in compound (1) AUC: 15%
  increase in compound (1) Cmax: 35%
  increase in compound (1) MRT and t1/2: 1.7-2 fold
[3]; human
  PE, compound (1) AUC: 0.786
  PE, compound (1) Cmax: 0.719
  changes in compound (1) tmax: not significant
  compound (1) CL/F: decrease
  compound (1) tmax: increase
[4]
  Tmax: 3 h
[1]; [9]
  compound (1) AUC0-24: small decrease
  compound (1) AUC0-t or AUC0-∞: unchanged
[1]; [10]
  compound (1) tmax: slightly later; also recorded: no effect
  interaction estimates (linear mixed model): ~1
[1]; during MgSO4 infusion vs compound (2) alone
  compound (1) Cmax: lower
[1]
  pharmacokinetic interaction between compound (2) and MgSO4: no interaction of clinical significance
[1]; with vs without MgSO4 infusion
  compound (1) mean t1/2 and MRT: nearly identical

## CC(C)[C@H](N)C(=O)OCC[C@H](NC(=O)[C@@H]1SCCN1S(=O)(=O)c1ccc(-c2ccccc2)cc1)c1ccc(F)cc1 [compound (2), (3S)-3-({[(2S)-3-(biphenyl-4-ylsulfonyl)-1,3-thiazolidin-2-yl]carbonyl}-amino)-3-(4-fluorophenyl)propyl L-valinate]
[5]
  mean AUC0-∞ of compound (2), times lower than that of compound (1): 771-1163 times
  mean peak concentration of compound (2), times lower than that of compound (1): 133-246 times
[1]
  pharmacokinetic interaction between compound (2) and MgSO4: no relevant mutual pharmacokinetic interactions
[6]
  substrate for the Pept1 transporter protein: not substrates
[7]
  solubility in water and in FeSSIF and FaSSIF media: improvements

## CC(C)[C@H](N)C(=O)OCC[C@H](NC(=O)[C@@H]1SCCN1S(=O)(=O)c1ccc(-c2ccccc2)cc1)c1ccc(F)cc1.Cl [compound (3), (3S)-3-({[(2S)-3-(biphenyl-4-ylsulfonyl)-1,3-thiazolidin-2-yl]carbonyl}-amino)-3-(4-fluorophenyl)propyl L-valinate hydrochloride]
[8]
  hygroscopicity: low
[8]; ambient conditions and elevated relative humidity
  stability of the crystal form: extended stability

## COC(=O)C1=C(C)NC(C)=C(C(=O)OC)C1c1ccccc1[N+](=O)[O-] [nifedipine, reference compound]
[3]
  effect of compound (2) on exposure to the co-administered drug: marked increase
